In US20250000932A1, “DIAGNOSIS AND TREATMENT OF VA[…]” (University Of Maryland, Baltimore, priority 2023, published 2025):

Test system: patients with catecholamine-resistant vasodilatory shock
Assay: ATHOS-3: safety (adverse events, serious adverse events)
Format: in vivo, human
Conditions: patients with elevated renin concentrations at baseline
Experimental: The use of Angiotensin II for the Treatment of High-Output Shock 3 (ATHOS-3) study has been described by Khanna et al. and Chawla et al. In brief, adults with vasodilatory shock despite volume resuscitation with 2:25 mL/kg and high-dose vasopressors were randomly assigned 1:1 to receive synthetic human angiotensin II (La Jolla Pharmaceutical Company™) or saline placebo plus standard vasopressors. Randomization was stratified according to MAP at screening and Acute Physiology and Chronic Health Evaluation II (APACHE II) score.
The study drug infusion started at 20 ng/kg/min and was adjusted during the first 3 hours to increase the MAP to 2:75 mm Hg while keeping other vasopressors constant. Thereafter, the study drug and other vasopressors were adjusted at the discretion of the treating ICU team to maintain a MAP between 65 and 75 mm Hg. At 48 hours, the infusion was discontinued according to a protocol-specified tapering process. However, continuation was allowed for up to 7 days at the discretion of the ICU team.
Safety was evaluated by assessment of treatment-emergent adverse events, serious adverse events, and adverse event-related drug discontinuations.

CC[C@H](C)[C@H](NC(=O)[C@H](Cc1ccc(O)cc1)NC(=O)[C@@H](NC(=O)[C@H](CCCNC(=N)N)NC(=O)[C@@H](N)CC(=O)O)C(C)C)C(=O)N[C@@H](Cc1cnc[nH]1)C(=O)N1CCC[C@H]1C(=O)N[C@@H](Cc1ccccc1)C(=O)O [Angiotensin II, angiotensin II]
adverse events or serious adverse events vs placebo: no significant difference
